The source of these data is publication PMC4821105 (Pharmacognosy Research, 2016).

For experiment [1], the target named is T1, PTP1B (Homo sapiens, UniProt P18031).
T1 sequence (P18031 1-435): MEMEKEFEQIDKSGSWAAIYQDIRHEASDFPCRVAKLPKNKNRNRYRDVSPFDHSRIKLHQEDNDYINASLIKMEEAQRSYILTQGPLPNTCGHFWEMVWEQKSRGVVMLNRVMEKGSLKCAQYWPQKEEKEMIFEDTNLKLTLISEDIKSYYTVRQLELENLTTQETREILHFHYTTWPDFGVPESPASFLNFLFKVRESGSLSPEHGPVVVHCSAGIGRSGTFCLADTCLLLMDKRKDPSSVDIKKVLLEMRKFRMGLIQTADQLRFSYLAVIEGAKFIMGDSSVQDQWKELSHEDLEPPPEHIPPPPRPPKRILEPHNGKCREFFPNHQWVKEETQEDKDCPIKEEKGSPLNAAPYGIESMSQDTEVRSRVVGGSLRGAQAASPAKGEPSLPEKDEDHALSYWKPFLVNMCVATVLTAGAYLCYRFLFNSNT
In words: Protein tyrosine phosphatase 1B inhibitory activity. It counts as biochemical.

In the next experiment the target is T2, TCPTP (Homo sapiens, UniProt P17706).
T2 sequence (P17706 1-415): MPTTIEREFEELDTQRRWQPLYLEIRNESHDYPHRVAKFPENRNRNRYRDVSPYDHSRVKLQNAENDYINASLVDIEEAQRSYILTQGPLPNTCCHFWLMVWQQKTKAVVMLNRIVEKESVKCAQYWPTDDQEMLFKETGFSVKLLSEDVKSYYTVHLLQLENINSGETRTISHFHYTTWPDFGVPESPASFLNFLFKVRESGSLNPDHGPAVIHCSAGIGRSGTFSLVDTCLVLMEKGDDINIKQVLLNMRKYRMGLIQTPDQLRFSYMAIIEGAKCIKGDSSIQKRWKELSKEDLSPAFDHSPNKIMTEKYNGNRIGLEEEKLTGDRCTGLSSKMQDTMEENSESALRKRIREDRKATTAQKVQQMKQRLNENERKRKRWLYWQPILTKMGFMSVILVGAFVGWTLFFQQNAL
Kind of experiment: T-cell protein tyrosine phosphatase inhibitory activity. The class given is biochemical.

Experiment [2] has as its target T1, PTP1B. The following applies: previous study of 28 medicinal plants; cited from earlier work.

What is called IC50 is the concentration that inhibits the measured activity by half. Read a low IC50 as inhibition by little substance. In the case of `C=C(C)[C@@H]1CC[C@]2(C(=O)O)CC[C@]3(C)[C@H](CC[C@@H]4[C@@]5(C)CC[C@H](O)C(C)(C)[C@@H]5CC[C@]43C)[C@@H]12` [Compound 1, Betulinic acid], the results for the IC50 on PTP1B [1] and at TCPTP were 3.28 µM and 5.25 µM, respectively. Also, at PTP1B [1] (read-out: PTP1B inhibited activity (%), 10 μg/mL, mean of triplicate), the inhibition at 10 µg/mL stood at 98%.
Turning to `C[C@H]1[C@H](C)CC[C@]2(C(=O)O)CC[C@]3(C)C(=CC[C@@H]4[C@@]5(C)CC[C@H](O)C(C)(C)[C@@H]5CC[C@]43C)[C@H]12` [Compound 2, ursolic acid], on TCPTP, it took 6.79 µM to reach half-maximal inhibition (IC50).
Regarding `CCCCCCCCCCCCCCCC(=O)C1=C(O)C(CO)OC1=O` (stereo not drawn) [RK-682, reference compound], the “PTP1B (IC50, μg/mL)” value at PTP1B [1] (pNPP 2 mM, 37°C, 30 min) worked out at 2.05 µg/mL. Besides, the “PTP1B IC50 (previous screening of Indonesian herbal medicines)” value at PTP1B [2] is 2.05 µg/mL.
